This passage reports IC50 results from patent publication US10865191B2, “Heterocyclic compounds useful as modulators of TNF alpha” (BRISTOL-MYERS SQUIBB COMPANY, priority 2015, dated 2020).

Structures are written as SMILES.

What is called IC50 is the concentration that inhibits the measured activity by half.

Chain of TNFα (P01375 77-233 limits assumed): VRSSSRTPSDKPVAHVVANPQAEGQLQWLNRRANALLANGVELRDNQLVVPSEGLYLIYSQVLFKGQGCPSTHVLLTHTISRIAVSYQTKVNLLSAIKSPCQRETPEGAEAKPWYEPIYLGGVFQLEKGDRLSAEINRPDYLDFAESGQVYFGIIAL

The target in the first experiment is TNFα (Homo sapiens, UniProt P01375). The experiment is described as follows: TNF induced HEK-Blue assay (NF-kB-driven secreted alkaline phosphatase reporter). Type of experiment: cell-based. The conditions noted are these: TNF induced HEK-Blue assay IC50 value, TNFα 0.5 ng/mL, HEK-Blue-CD40L cells, 18 h. The method in brief:
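HEK-Blue-CD40L cells (NF-kB-driven SEAP reporter), 20,000/well, added after 30 min pre-incubation of compound (0.004–25 μM final) with TNFα 0.5 ng/mL final at 37 °C; 18 h incubation. SEAP read with QUANTI-Blue at 620 nm; IC50 from 4-parameter logistic fit, normalized to unstimulated and stimulated DMSO controls.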
`C[C@@H](Nc1c(Cl)cnc2ccc(-c3cnc(C(C)(C)O)nc3)cc12)c1cc(N2CCCC2)ccc1F` [Example 364, (R)-2-(5-(3-chloro-4-((1-(2-fluoro-5-(pyrrolidin-1-yl)phenyl)ethyl)amino)quinolin-6-yl)pyrimidin-2-yl)propan-2-ol]: the IC50 is below 1000 nM.

The experiment is the same for the next values; noted with them: TNFα 0.5 ng/mL, HEK-Blue-CD40L cells, 18 h; read-out: TNF induced HEK-Blue assay IC50 value.
As for `C[C@@H](Nc1c(Cl)cnc2ccc(-c3cnc(C(C)(C)O)nc3)cc12)c1cc(-c2cnccn2)ccc1F` [Example 341, (R)-2-(5-(3-chloro-4-((1-(2-fluoro-5-(pyrazin-2-yl)phenyl)ethyl)amino)quinolin-6-yl)pyrimidin-2-yl)propan-2-ol], the IC50 was below 1000 nM. The same measure, in the same setting: with `Cc1nc2ccc(-c3cnc(N4CCN(CC(=O)O)CC4)nc3)cc2c(N[C@H](C)c2cc(-c3cn[nH]c3)ccc2F)c1Cl` [Example 342, (R)-2-(4-(5-(3-chloro-4-((1-(2-fluoro-5-(1H-pyrazol-4-yl)phenyl)ethyl)amino)-2-methylquinolin-6-yl)pyrimidin-2-yl)piperazin-1-yl)acetic acid] the figure was below 1000 nM; with `Cc1nc2ccc(-c3cnc(C(C)(C)O)nc3)cc2c(N[C@H](C)c2cc(-c3cnc(C(C)(C)O)nc3)ccc2F)c1Cl` [Example 343, (R)-2-(5-(3-chloro-4-((1-(2-fluoro-5-(2-(2-hydroxypropan-2-yl)pyrimidin-5-yl)phenyl)ethyl)amino)-2-methylquinolin-6-yl)pyrimidin-2-yl)propan-2-ol], below 1000 nM. `Cc1nc2ccc(-c3cnc(C(C)(C)O)nc3)cc2c(N[C@H](C)c2cc(-c3cnn(C)c3)ccc2F)c1Cl` [Example 344, (R)-2-(5-(3-chloro-4-((1-(2-fluoro-5-(1-methyl-1H-pyrazol-4-yl)phenyl)ethyl)amino)-2-methylquinolin-6-yl)pyrimidin-2-yl)propan-2-ol]: the concentration for half-maximal inhibition (IC50) was below 1000 nM. Same read-out and setting: with `C[C@@H](Nc1c(Cl)cnc2ccc(-c3cnc(C(C)(C)O)nc3)cc12)c1cc(-c2ncccn2)ccc1F` [Example 345, (R)-2-(5-(3-chloro-4-((1-(2-fluoro-5-(pyrimidin-2-yl)phenyl)ethyl)amino)quinolin-6-yl)pyrimidin-2-yl)propan-2-ol] the figure was below 1000 nM; with `C[C@@H](Nc1c(Cl)cnc2ccc(-c3cnc(C(C)(C)O)nc3)cc12)c1cc(-c2cnn(CC(=O)O)c2)ccc1F` [Example 346, (R)-2-(4-(3-(1-((3-chloro-6-(2-(2-hydroxypropan-2-yl)pyrimidin-5-yl)quinolin-4-yl)amino)ethyl)-4-fluorophenyl)-1H-pyrazol-1-yl)acetic acid], 1000 to 10000 nM. Still for that read-out and setting: with `C[C@@H](Nc1c(Cl)cnc2ccc(-c3cnc(C(C)(C)O)nc3)cc12)c1cc(-c2cncs2)ccc1F` [Example 347, (R)-2-(5-(3-chloro-4-((1-(2-fluoro-5-(thiazol-5-yl)phenyl)ethyl)amino)quinolin-6-yl)pyrimidin-2-yl)propan-2-ol] the figure was below 1000 nM.

Turning to `C[C@@H](Nc1c(Cl)cnc2ccc(-c3cnc(C(C)(C)O)nc3)cc12)c1cc(-c2ccc(N)nc2)ccc1F` [Example 348, (R)-2-(5-(4-((1-(5-(6-aminopyridin-3-yl)-2-fluorophenyl)ethyl)amino)-3-chloroquinolin-6-yl)pyrimidin-2-yl)propan-2-ol], the half-inhibitory concentration (IC50) is below 1000 nM. On the same count and under the same terms, as for `C[C@@H](Nc1c(Cl)cnc2ccc(-c3cnc(C(C)(C)O)nc3)cc12)c1cc(-c2cnn(CC(C)(C)O)c2)ccc1F` [Example 349, (R)-1-(4-(3-(1-((3-chloro-6-(2-(2-hydroxypropan-2-yl)pyrimidin-5-yl)quinolin-4-yl)amino)ethyl)-4-fluorophenyl)-1H-pyrazol-1-yl)-2-methylpropan-2-ol], the figure is below 1000 nM; as for `C[C@@H](Nc1c(Cl)cnc2ccc(-c3cnc(C(C)(C)O)nc3)cc12)c1cc(-c2ccnc(N)c2)ccc1F` [Example 350, (R)-2-(5-(4-((1-(5-(2-aminopyridin-4-yl)-2-fluorophenyl)ethyl)amino)-3-chloroquinolin-6-yl)pyrimidin-2-yl)propan-2-ol], below 1000 nM. As for `Cc1ccc(F)c([C@H](Nc2c(Cl)c(C)nc3ccc(-c4cnc(C(C)(C)O)nc4)cc23)C(F)F)c1` [Example 351, (S)-2-(5-(3-chloro-4-((2,2-difluoro-1-(2-fluoro-5-methylphenyl)ethyl)amino)-2-methylquinolin-6-yl)pyrimidin-2-yl)propan-2-ol], the IC50 is below 1000 nM. The same measure, in the same setting: as for `C=Cc1ccc(F)c([C@H](Nc2c(Cl)c(C)nc3ccc(-c4cnc(C(C)(C)O)nc4)cc23)C(F)F)c1` [Example 352, (S)-2-(5-(3-chloro-4-((2,2-difluoro-1-(2-fluoro-5-vinylphenyl)ethyl)amino)-2-methylquinolin-6-yl)pyrimidin-2-yl)propan-2-ol], the figure is below 1000 nM; as for `Cc1nc2ccc(-c3cnc(C(C)(C)O)nc3)cc2c(-c2ccccc2-c2ccccc2)c1Cl` [Example 353, 2-(5-(4-([1,1′-biphenyl]-2-yl)-3-chloro-2-methylquinolin-6-yl)pyrimidin-2-yl)propan-2-ol], 1000 to 10000 nM. In the case of `COC(=O)N1CCC[C@H]([C@H](C)Nc2c(Cl)cnc3ccc(-c4cnc(C(C)(C)O)nc4)cc23)C1` [Example 354, (S)-methyl 3-((S)-1-((3-chloro-6-(2-(2-hydroxypropan-2-yl)pyrimidin-5-yl)quinolin-4-yl)amino)ethyl)piperidine-1-carboxylate], the IC50 is below 1000 nM. Still for that read-out and setting: as for `Cc1nc2ccc(-c3cnc(C(C)(C)O)nc3)cc2c(N[C@H](C)c2cc(NC(=O)OC(C)(C)C)ccc2F)c1Cl` [Example 359, tert-Butyl (R)-(3-(1-((3-chloro-6-(2-(2-hydroxypropan-2-yl)pyrimidin-5-yl)-2-methylquinolin-4-yl)amino)ethyl)-4-fluorophenyl)carbamate], the figure is below 1000 nM; as for `Cc1nc2ccc(-c3cnc(C(C)(C)O)nc3)cc2c(N[C@H](C)c2cc(N)ccc2F)c1Cl` [Example 360, (R)-2-(5-(4-((1-(5-amino-2-fluorophenyl)ethyl)amino)-3-chloro-2-methylquinolin-6-yl)pyrimidin-2-yl)propan-2-ol], below 1000 nM; as for `Cc1nc2ccc(-c3cnc(C(C)(C)O)nc3)cc2c(N[C@H](C)c2cc(N3CCCC3=O)ccc2F)c1Cl` [Example 361, (R)-1-(3-(1-((3-chloro-6-(2-(2-hydroxypropan-2-yl)pyrimidin-5-yl)-2-methylquinolin-4-yl)amino)ethyl)-4-fluorophenyl)pyrrolidin-2-one], below 1000 nM. Still for that read-out and setting: as for `C[C@@H](Nc1c(Cl)cnc2ccc(-c3cnc(C(C)(C)O)nc3)cc12)c1cc(N2CCCC2=O)ccc1F` [Example 362, (R)-1-(3-(1-((3-chloro-6-(2-(2-hydroxypropan-2-yl)pyrimidin-5-yl)quinolin-4-yl)amino)ethyl)-4-fluorophenyl)pyrrolidin-2-one], the figure is below 1000 nM; as for `C[C@@H](Nc1c(Cl)cnc2ccc(-c3cnc(C(C)(C)O)nc3)cc12)c1cccc(N2CCCC2=O)c1` [Example 363, (R)-1-(3-(1-((3-chloro-6-(2-(2-hydroxypropan-2-yl)pyrimidin-5-yl)quinolin-4-yl)amino)ethyl)phenyl)pyrrolidin-2-one], 1000 to 10000 nM; as for `Cc1nc2ccc(-c3cnc(C(C)(C)O)nc3)cc2c(N[C@H](C)c2cc(-n3cccn3)ccc2F)c1Cl` [Example 365, (R)-2-(5-(3-chloro-4-((1-(2-fluoro-5-(1H-pyrazol-1-yl)phenyl)ethyl)amino)-2-methylquinolin-6-yl)pyrimidin-2-yl)propan-2-ol], below 1000 nM. On the same count and under the same terms, as for `C[C@@H](Nc1c(Cl)cnc2ccc(-c3cnc(C(C)(C)O)nc3)cc12)c1cc(-n2cccn2)ccc1F` [Example 366, (R)-2-(5-(3-chloro-4-((1-(2-fluoro-5-(1H-pyrazol-1-yl)phenyl)ethyl)amino)quinolin-6-yl)pyrimidin-2-yl)propan-2-ol], the figure is below 1000 nM. Take `C[C@@H](Nc1c(Cl)cnc2ccc(-c3cnc(C(C)(C)O)nc3)cc12)c1cc(N2CCOC2=O)ccc1F` [Example 367, (R)-3-(3-(1-((3-chloro-6-(2-(2-hydroxypropan-2-yl)pyrimidin-5-yl)quinolin-4-yl)amino)ethyl)-4-fluorophenyl) oxazolidin-2-one]: the IC50 was below 1000 nM. In the case of `C[C@@H](Nc1c(Cl)cnc2ccc(-c3cnc(C(C)(C)O)nc3)cc12)c1cccc(-n2cccn2)c1` [Example 368, (R)-2-(5-(4-((1-(3-(1H-pyrazol-1-yl)phenyl)ethyl)amino)-3-chloroquinolin-6-yl)pyrimidin-2-yl)propan-2-ol], the IC50 lay within 10000 to 25000 nM. Still for that read-out and setting: with `C[C@@H](Nc1c(Cl)cnc2ccc(-c3cnc(C(C)(C)O)nc3)cc12)c1cc(N2CCOCC2=O)ccc1F` [Example 369, (R)-4-(3-(1-((3-chloro-6-(2-(2-hydroxypropan-2-yl)pyrimidin-5-yl)quinolin-4-yl)amino)ethyl)-4-fluorophenyl) morpholin-3-one] the figure was below 1000 nM.

Turning to `C[C@@H](Nc1c(Cl)cnc2ccc(-c3cnc(C(C)(C)O)nc3)cc12)c1cc(N2CCNC2=O)ccc1F` [Example 370, (R)-1-(3-(1-((3-chloro-6-(2-(2-hydroxypropan-2-yl)pyrimidin-5-yl)quinolin-4-yl)amino)ethyl)-4-fluorophenyl)imidazolidin-2-one], the half-inhibitory concentration (IC50) is below 1000 nM. Still for that read-out and setting: with `C[C@@H](Nc1c(Cl)cnc2ccc(-c3cnc(C(C)(C)O)nc3)cc12)c1cc(-n2cnnc2)ccc1F` [Example 371, (R)-2-(5-(3-chloro-4-((1-(2-fluoro-5-(4H-1,2,4-triazol-4-yl)phenyl)ethyl)amino)quinolin-6-yl)pyrimidin-2-yl)propan-2-ol] the figure was below 1000 nM; with `Cc1nc2ccc(-c3cnc(C(C)(C)O)nc3)cc2c(N[C@@H](c2cc(N3CCNC3=O)ccc2F)C(F)F)c1Cl` [Example 372, (S)-1-(3-(1-((3-chloro-6-(2-(2-hydroxypropan-2-yl)pyrimidin-5-yl)-2-methylquinolin-4-yl)amino)-2,2-difluoroethyl)-4-fluorophenyl) imidazolidin-2-one], below 1000 nM.
